Measured values reported in US20210283151A1, “USE OF COMPOUND IN DRUG FOR PREVENTING, TREATING, OR ALLEVIATING PAIN” (ASCENTAWITS PHARMACEUTICALS, LTD., priority 2018, published 2021).

Assays:
prostaglandin F2 = test: Serum prostaglandin F2 by ELISA after single intravenous infusion to cynomolgus monkeys; type: in vivo, cynomolgus monkey; conditions: for The measured concentration of prostaglandin F2: 1 mg/kg intravenous infusion; for Effect on prostaglandin F2 content (in words): cynomolgus monkeys, after administration (0.58 mg/kg as printed in b199), fluctuating increase at 24 h; for The measured concentration of prostaglandin F2, Mean: mean of 3 animals, before administration 1088.09
Method: (§1) An experiment with three cynomolgus monkeys was performed according to the table below.
(§2) Four male cynomolgus monkeys were purchased from Guangxi Xiongsen Primate Development and Experiment Co., Ltd., and all of them were healthy cynomolgus monkeys that had passed the physical examination and have no abnormalities. Among them, three cynomolgus monkeys were used in the experiment of administration and the remaining one was used for preparing blank plasma.
(§3) Before administration, and 6, 24, 48 and 72 hours after the start of administration, 1 mL of blood was collected from the femoral vein or other suitable vein, and placed in a blood collection tube without anticoagulant. After collected, the blood sample was placed on ice and allowed to stand for 30-60 minutes before being centrifuged at 3,500 rpm for 10 minutes at 2-8° C. to separate the serum. The collected serum was stored at −80° C. before being analyzed.
(§4) Prostaglandins E2 and F2 in serum samples were analyzed by conventional ELISA methods. The measurement results are as follows.
(§5) The concentrations of prostaglandins E2 and F2 in the serum after single administration to cynomolgus monkeys by intravenous infusion

AKR1C3 = target: T1, AKR1C3 (Homo sapiens, UniProt P42330); test: In vitro AKR1C3 activity: production of reduced progesterone (20α-dihydroprogesterone) by LC/MS; type: biochemical; conditions: reaction 30 min; for AKR1C3 activity % / activity at 5 µM: negative control = 100
T1 sequence (P42330 1-323): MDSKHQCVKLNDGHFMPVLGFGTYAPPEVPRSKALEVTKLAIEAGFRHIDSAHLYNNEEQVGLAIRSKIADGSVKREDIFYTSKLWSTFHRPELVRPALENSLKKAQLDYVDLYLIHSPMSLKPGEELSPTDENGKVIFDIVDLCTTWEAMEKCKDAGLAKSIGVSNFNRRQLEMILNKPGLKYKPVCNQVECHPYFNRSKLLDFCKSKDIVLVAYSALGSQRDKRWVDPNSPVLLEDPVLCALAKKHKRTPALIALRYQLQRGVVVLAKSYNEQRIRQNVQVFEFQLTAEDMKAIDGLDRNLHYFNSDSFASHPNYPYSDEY
Method: Experimental apparatus: Waters Acquity I Class UPLC Ultra Performance Liquid Chromatograph equipped with a Xevo G2-XS Q Tof HRMS Quadrupole Time-of-flight High-Resolution Mass Spectrometer
1. PBS phosphate buffered saline solution,
2. PBS phosphate buffered saline solution of 20 mM NADPH
3. PBS phosphate buffered saline solution of 250 μg/mL AKR1C3
5. 50% MeOH/H2O solution of 250 μM progesterone
6. 100% acetonitrile solution of 1 μg/mL propranolol
In step 1, the reaction mixtures were prepared into Eppendorf tubes in quadruplicate (n=4) according to the table below and mixed gently.
In step 2, the above mixtures were pre-incubated in duplicate at 37° C. for 30 minutes and 60 minutes.
In step 3, another 10 μL of PBS phosphate buffered saline solution of 20 mM NADPH and 2 μL of 50% MeOH/H2O solution of 250 μM progesterone were added to each Eppendorf tube and mixed gently.
In step 4, 50 μL of the mixture in the above step was immediately transferred to 100 μL of 100% acetonitrile solution of 1 μg/mL propranolol (internal standard (IS)).
In step 5, the remaining samples were incubated at 37° C. for 30 minutes, and 100 μL of 100% acetonitrile solution of 1 μg/mL propranolol (internal standard (IS)) was added.
In step 6, 100 μL of reagent water was added to all the samples, vortexed at 1,100 rpm for 5 minutes, and centrifuged at 15,000 rpm for 10 minutes at room temperature.
In step 7, all the samples were loaded on LC/MS to determine the content of reduced progesterone, namely 20α-dihydroprogesterone.
The test conditions for the LC-MS apparatus are shown below
In step 9, the reduced progesterone (20α-dihydroprogesterone) is calculated: the peak area of the reduced progesterone, namely 20α-dihydroprogesterone and propranolol, in each sample was determined by LC/MS. The peak area ratios of reduced progesterone to propranolol (i.e., the ratios in the above table) were calculated, and when the time is 0 the ratio is set to 0%.
AKR1C3 activity (%)=[(the amount of reduced progesterone after normalization of the sample) 30 min−(the amount of reduced progesterone after normalization of the sample) 0 min]/[(the amount of reduced progesterone after normalization of the negative control group) 30 min−(the amount of reduced progesterone after normalization of the negative control group) 0 min]*100.
The AKR1C3 activity results in the above table were calculated according to the above formula.

prostaglandin E2 = test: Serum prostaglandin E2 by ELISA after single intravenous infusion to cynomolgus monkeys; type: in vivo, cynomolgus monkey; conditions: for The measured concentration of prostaglandin E2: 1 mg/kg intravenous infusion; for The measured concentration of prostaglandin E2, Mean: mean of 3 animals, before administration 469.60
Method: as §1, §2, §3, §4, §5

[1] = animal 101, 6 h after start of administration
[2] = animal 101, 24 h after start of administration
[3] = animal 101, 48 h after start of administration
[4] = animal 101, 72 h after start of administration
[5] = animal 102, 6 h after start of administration
[6] = animal 102, 24 h after start of administration
[7] = animal 102, 48 h after start of administration
[8] = animal 102, 72 h after start of administration
[9] = animal 103, 6 h after start of administration
[10] = animal 103, 24 h after start of administration
[11] = animal 103, 48 h after start of administration
[12] = animal 103, 72 h after start of administration
[13] = 5 μM AST-3424, pre-incubation 30 min at 37° C.
[14] = 5 μM AST-3424, pre-incubation 60 min at 37° C.

C[C@H](OP(=O)(N1CC1)N1CC1)c1ccc([N+](=O)[O-])c(Oc2cccc(C(=O)N(C)C)c2)c1 [AST-3424]
The measured concentration of prostaglandin F2 (prostaglandin F2; [1]): 165.32 pg/mL
The measured concentration of prostaglandin F2 (prostaglandin F2; [2]): 816.63 pg/mL
The measured concentration of prostaglandin F2 (prostaglandin F2; [3]): 183.73 pg/mL
The measured concentration of prostaglandin F2 (prostaglandin F2; [4]): 441.76 pg/mL
The measured concentration of prostaglandin F2 (prostaglandin F2; [5]): 260.80 pg/mL
The measured concentration of prostaglandin F2 (prostaglandin F2; [6]): 3460.25 pg/mL
The measured concentration of prostaglandin F2 (prostaglandin F2; [7]): 216.12 pg/mL
The measured concentration of prostaglandin F2 (prostaglandin F2; [8]): 968.01 pg/mL
The measured concentration of prostaglandin F2 (prostaglandin F2; [9]): 300.65 pg/mL
The measured concentration of prostaglandin F2 (prostaglandin F2; [10]): 4208.19 pg/mL
The measured concentration of prostaglandin F2 (prostaglandin F2; [11]): 541.05 pg/mL
The measured concentration of prostaglandin F2 (prostaglandin F2; [12]): 1369.67 pg/mL
Effect on prostaglandin F2 content (in words) (prostaglandin F2; 0.58 mg/kg): greatly reduce the content of PGF2
Effect on prostaglandin F2 content (in words) (prostaglandin F2; listed as AST3424, 0.58 mg/kg): decreased
The measured concentration of prostaglandin F2, Mean (prostaglandin F2; 6 h): 242.26 pg/mL
The measured concentration of prostaglandin F2, Mean (prostaglandin F2; 24 h): 2828.36 pg/mL
The measured concentration of prostaglandin F2, Mean (prostaglandin F2; 48 h): 313.63 pg/mL
The measured concentration of prostaglandin F2, Mean (prostaglandin F2; 72 h): 926.48 pg/mL
AKR1C3 activity % (AKR1C3; [13]): 3.9%
activity at 5 µM (AKR1C3; [13]): 3.9%
AKR1C3 activity % (AKR1C3; [14]): 9.2%
activity at 5 µM (AKR1C3; [14]): 9.2%
Peak area ratio of reduced progesterone to propranolol (AKR1C3; pre-incubation 30 min, negative control 0.1506): 0.0074
Peak area ratio of reduced progesterone to propranolol (AKR1C3; pre-incubation 60 min, negative control 0.1343): 0.0137
The measured concentration of prostaglandin E2 (prostaglandin E2; [1]): 210.67 pg/mL
The measured concentration of prostaglandin E2 (prostaglandin E2; [2]): 450.48 pg/mL
The measured concentration of prostaglandin E2 (prostaglandin E2; [3]): 322.13 pg/mL
The measured concentration of prostaglandin E2 (prostaglandin E2; [4]): 408.15 pg/mL
The measured concentration of prostaglandin E2 (prostaglandin E2; [5]): 214.73 pg/mL
The measured concentration of prostaglandin E2 (prostaglandin E2; [6]): 822.21 pg/mL
The measured concentration of prostaglandin E2 (prostaglandin E2; [7]): 168.84 pg/mL
The measured concentration of prostaglandin E2 (prostaglandin E2; [8]): 521.78 pg/mL
The measured concentration of prostaglandin E2 (prostaglandin E2; [9]): 670.73 pg/mL
The measured concentration of prostaglandin E2 (prostaglandin E2; [10]): 2735.20 pg/mL
The measured concentration of prostaglandin E2 (prostaglandin E2; [11]): 276.35 pg/mL
The measured concentration of prostaglandin E2 (prostaglandin E2; [12]): 663.03 pg/mL
Effect on prostaglandin E2 content (in words) (prostaglandin E2; cynomolgus monkeys, after administration (0.58 mg/kg), fluctuating increase at 24 h): decreased
The measured concentration of prostaglandin E2, Mean (prostaglandin E2; 6 h): 365.38 pg/mL
The measured concentration of prostaglandin E2, Mean (prostaglandin E2; 24 h): 1335.97 pg/mL
The measured concentration of prostaglandin E2, Mean (prostaglandin E2; 48 h): 255.78 pg/mL
The measured concentration of prostaglandin E2, Mean (prostaglandin E2; 72 h): 530.99 pg/mL
